Patent US20070213338A1, “Triazolo-Pyridazine Compounds and Derivatives Thereof Useful in the Treatment of Neuropathic Pain” (priority 2003, published 2007)

Tested on: nerve injury-induced tactile allodynia
Experiment: Spinal Nerve Ligation Model (Chung Model)
Format: in vivo, Male Sprague Dawley rats
Details: rat, i.p. dosing at 30 mg/kg
From the text: The spinal nerve ligation model of neuropathic pain was used to assess the effects of test compounds on nerve injury-induced tactile allodynia (S. H. Kim and J. M. Chung, Pain 50:355-363(1992)). Male Sprague Dawley rats (175-200 g) received unilateral tight ligation of the left L5/L6 spinal nerves distal to the dorsal root ganglion using 4-0 silk suture. Behavioral nociceptive testing occurred 7-14 days following spinal nerve ligation by placing the rats in chambers on a wire mesh. Rats were tested for tactile allodynia (decreased hindpaw withdrawal threshold to non-noxious punctate stimulation) by applying a series of calibrated von Frey filaments to the plantar aspect of the left hindpaw ipsilateral to the site of nerve injury. The mean 50% hindpaw withdrawal threshold (g.) was determined using the Dixon “up-own” non-parametric test (Chaplan et al., J. Neurosci. Methods, 53:55-63(1994)). […] Following determination of pre-drug withdrawal thresholds, rats received either an i.p. or p.o. injection of test compound. The effect of the test compound on tactile allodynia was determined over time by measuring hindpaw withdrawal thresholds 30, 60, 90, 120 min post-injection.

SMILES	effect on tactile allodynia (hindpaw withdrawal threshold) [%]
Cc1nnc2c3ccccc3c(OCc3cccc(CNCCc4ccccc4)n3)nn12 [Example 23]	65
FC(F)(F)c1nnc2c3ccccc3c(OCc3cccc(CNCCc4ccccc4)n3)nn12 [Example 58, Phenethyl-[6-(3-trifluoromethyl-[1,2,4]triazolo[3,4,-a]phthalazin-6-yloxymethyl)-pyridin-2-ylmethyl]-amine]	100
